Literature values as cited in PMC4474874, “Effect of JAK Inhibitors on Release of CXCL9, CXCL10 and CXCL11 from Human Airway Epithelial Cells” (PLoS ONE, 2015).

Assays:
PAK4 = system: PAK4; parameters: method as in PMID 18094329; conditions: inactive or IC50 >30μM; read-out: IC50 against PAK4; cited from earlier work
MAPK1 = system: MAPK1; parameters: method as in PMID 18094329; conditions: inactive or IC50 >30μM; read-out: IC50 against MAPK1; cited from earlier work
cdk6 = system: cdk6; parameters: method as in PMID 18094329; conditions: inactive or IC50 >30μM; read-out: IC50 against cdk6; cited from earlier work
ROCK1 = system: ROCK1; parameters: method as in PMID 18094329; conditions: inactive or IC50 >30μM; read-out: IC50 against ROCK1; cited from earlier work
Lck = system: Lck; parameters: method as in PMID 18094329; conditions: at concentrations >5μM; cited from earlier work
AuroraA = system: AuroraA; parameters: method as in PMID 18094329; conditions: inactive or IC50 >30μM; read-out: IC50 against AuroraA; cited from earlier work
JAK3 = system: JAK3; parameters: method as in PMID 18094329; conditions: read-out: IC50 against JAK3; cited from earlier work
MASK = system: MASK; parameters: method as in PMID 18094329; conditions: inactive or IC50 >30μM; read-out: IC50 against MASK; cited from earlier work
PKCb = system: PKCb; parameters: method as in PMID 18094329; conditions: inactive or IC50 >30μM; read-out: IC50 against PKCb; cited from earlier work
[1] = system: human T lymphocytes (JAK1/3); parameters: method as in Coe et al., 25; conditions: ref Coe et al., 25; read-out: IC50 IL-2-induced P-STAT5 human T lymphocytes (JAK1/3); cited from earlier work

## C[C@@H]1CCN(C(=O)N2CCCC2)C[C@@H]1N(C)c1ncnc2[nH]ccc12 [PF956980]
PAK4
  IC50: > 30 µM
MAPK1
  IC50: > 30 µM
cdk6
  IC50: > 30 µM
ROCK1
  IC50: > 30 µM
Lck
  effect against Lck: modest effects
AuroraA
  IC50: > 30 µM
JAK3
  IC50: ~0.004 µM
MASK
  IC50: > 30 µM
PKCb
  IC50: > 30 µM

## CCc1cc(O)ccc1-c1ccc2c(-c3nc4ccccc4[nH]3)n[nH]c2c1 [PF1367550, 4-(3-(1H-benzo[d]imidazol-2-yl)-1H-indazol-6-yl)-3-ethylphenol]
[1]
  IC50: 0.011 µM
